Assay [1] relates to Mycolicibacterium smegmatis. Put plainly: Antibacterial activity against Mycobacterium smegmatis. The class given is functional.
Assay [2] relates to Mycobacterium tuberculosis. Put plainly: Antibacterial activity against Mycobacterium tuberculosis. The class given is functional.
In a further assay the test system is Mycobacterium avium. The assay can be described thus: Antibacterial activity against Mycobacterium avium. The class given is functional.
For assay [3], the system named is Mycobacterium intracellulare. Put plainly: Antibacterial activity against Mycobacterium intracellulare. The class given is functional.
The subject of assay [4] is Haemophilus influenzae. The assay can be described thus: Antibacterial activity against Haemophilus influenzae after 20 hrs by NCCLS-based two-fold broth dilution method. The class given is functional. (In broth dilution the organism is exposed to a series of concentrations in liquid medium.)
The subject of assay [5] is Enterococcus faecalis. The assay can be described thus: Antibacterial activity against t Enterococcus faecalis after 20 hrs by NCCLS-based two-fold broth dilution method. The assay is classed as functional. As to conditions: read-out: MIC.
Assay [6] concerns Enterococcus faecalis. The assay can be described thus: Antibacterial activity against t Enterococcus faecalis VRE after 20 hrs by NCCLS-based two-fold broth dilution method. The class given is functional. The settings on record: read-out: MIC.
Assay [7] relates to Staphylococcus aureus. Put plainly: Antibacterial activity against methicillin resistant Staphylococcus aureus after 20 hrs by NCCLS-based two-fold broth dilution method. As to conditions: read-out: MIC. The class given is functional.
The subject of assay [8] is Staphylococcus aureus. The assay can be described thus: Antibacterial activity against methicillin susceptible Staphylococcus aureus after 20 hrs by NCCLS-based two-fold broth dilution method. The assay is classed as functional. As to conditions: read-out: MIC.
For assay [9], the system named is Enterococcus faecium. The assay can be described thus: Antibacterial activity against t Enterococcus faecium after 20 hrs by NCCLS-based two-fold broth dilution method. The class given is functional.
The test system of assay [10] is Enterococcus faecium. The assay can be described thus: Antibacterial activity against t Enterococcus faecium VRE after 20 hrs by NCCLS-based two-fold broth dilution method. The assay is classed as functional. As to conditions: read-out: MIC.
The test system of assay [11] is Pseudomonas aeruginosa. Put plainly: Antibacterial activity against Pseudomonas aeruginosa after 20 hrs by NCCLS-based two-fold broth dilution method. The assay is classed as functional.
Assay [12] has as its system Enterococcus faecium. The assay can be described thus: Antibacterial activity against Enterococcus faecium ATCC 19434. The class given is functional.
The test system of assay [13] is Haemophilus influenzae. Put plainly: Antibacterial activity against Haemophilus influenzae ATCC 10211. The assay is classed as functional.
The subject of assay [14] is Enterococcus faecalis. Put plainly: Antibacterial activity against Enterococcus faecalis ATCC 29212. The class given is functional.
The test system of assay [15] is Enterococcus faecalis. The assay can be described thus: Antibacterial activity against Enterococcus faecalis SR7914 (VRE). The class given is functional.
The subject of assay [16] is Staphylococcus aureus. Put plainly: Antibacterial activity against methicillin susceptible Staphylococcus aureus ATCC 29213. The assay is classed as functional.
In assay [17] the test system is Staphylococcus aureus. The assay can be described thus: Antibacterial activity against methicillin resistant Staphylococcus aureus SR3637. The class given is functional.
Assay [18] deals with Enterococcus faecium. The assay can be described thus: Antibacterial activity against Enterococcus faecium SR7917 (VRE). The assay is classed as functional.
The subject of assay [19] is Pseudomonas aeruginosa. The assay can be described thus: Antibacterial activity against Pseudomonas aeruginosa YY165. The assay is classed as functional.
Assay [20] has as its system Escherichia coli. The assay can be described thus: Antibacterial activity against Escherichia coli after 20 hrs by NCCLS-based two-fold broth dilution method. The class given is functional.
The target of assay [21] is T1, Phospho-N-acetylmuramoyl-pentapeptide-transferase (Staphylococcus aureus, UniProt P0C1R8).
T1 sequence (P0C1R8 whole entry): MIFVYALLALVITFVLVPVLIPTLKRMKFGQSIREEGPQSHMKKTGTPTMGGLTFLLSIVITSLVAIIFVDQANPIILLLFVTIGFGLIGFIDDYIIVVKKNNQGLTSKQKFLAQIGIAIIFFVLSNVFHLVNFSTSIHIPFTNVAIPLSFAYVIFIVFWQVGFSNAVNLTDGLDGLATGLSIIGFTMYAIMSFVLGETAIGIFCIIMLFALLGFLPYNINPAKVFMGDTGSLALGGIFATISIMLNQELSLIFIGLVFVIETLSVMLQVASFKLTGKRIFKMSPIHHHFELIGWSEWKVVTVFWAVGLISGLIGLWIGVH
The assay can be described thus: Inhibition of MraY in Staphylococcus aureus.

In the next assay the test system is Streptococcus pneumoniae. The assay can be described thus: Antibacterial activity against Streptococcus pneumoniae. The assay is classed as functional.
Assay [22] concerns Escherichia coli. The assay can be described thus: Antibacterial activity against Escherichia coli ATCC 25922. The class given is functional.
A further assay relates to Acinetobacter baumannii. Put plainly: Antibacterial activity against Acinetobacter baumannii ATCC 19606. The settings on record: ATCC 19606 = CIP 70.34 = JCM 6841. The class given is functional.
Assay [23] deals with Pseudomonas aeruginosa. Put plainly: Antibacterial activity against Pseudomonas aeruginosa PAO1 deltamexB. The class given is functional.

≈ marks a conversion by molar mass, not a printed value.

What is called IC50 is the concentration that gives 50% inhibition.

Regarding `CCCCCCCCCCCC[C@@H](CC(=O)O[C@H]1CN(C)[C@@H]([C@H](O[C@@H]2O[C@H](CN)[C@@H](O)[C@H]2O)[C@H]2O[C@@H](n3ccc(=O)[nH]c3=O)[C@H](O)[C@@H]2O)C(=O)N(C)[C@@H]1C(=O)O)OC(=O)C[C@H](C)CC(=O)O[C@@H]1O[C@@H](C)[C@H](OC)[C@@H](OC)[C@H]1OC`, the MIC is 0.78 to 1.56 µg/mL (≈ 0.689 to 1.38 µM) in [1], 0.78 µg/mL (≈ 0.689 µM) in [2], below 0.025 µg/mL against Mycobacterium avium and 0.78 µg/mL (≈ 0.689 µM) in assay [3].

As to `CCCCCCCCCCCCCC(=O)N[C@@H]1CCN[C@@H]([C@H](O[C@@H]2O[C@H](CN)[C@@H](O)[C@H]2O)[C@H]2O[C@@H](n3ccc(=O)[nH]c3=O)[C@H](O)[C@@H]2O)C1`, the MIC in the assay with Haemophilus influenzae [4] was found to be 32 µg/mL (≈ 46.8 µM); in the assay on Enterococcus faecalis [5] it was 2 µg/mL (≈ 2.92 µM); in the assay on Enterococcus faecalis [6], 2 µg/mL (≈ 2.92 µM); in the assay on Staphylococcus aureus [7], 32 µg/mL (≈ 46.8 µM); with Staphylococcus aureus [8], 16 µg/mL (≈ 23.4 µM); against Enterococcus faecium [9], 16 µg/mL (≈ 23.4 µM). Further, the MIC in the assay on Enterococcus faecium [10] is 8 µg/mL (≈ 11.7 µM); in the assay on Pseudomonas aeruginosa [11], 32 µg/mL (≈ 46.8 µM); against Enterococcus faecium [12] it was 16 µg/mL (≈ 23.4 µM); against Haemophilus influenzae [13], 32 µg/mL (≈ 46.8 µM); in the assay with Enterococcus faecalis [14], 2 µg/mL (≈ 2.92 µM); in the assay on Enterococcus faecalis [15] it was 2 µg/mL (≈ 2.92 µM). The MIC came to 16 µg/mL (≈ 23.4 µM) in the assay on Staphylococcus aureus [16], 32 µg/mL (≈ 46.8 µM) with Staphylococcus aureus [17], 8 µg/mL (≈ 11.7 µM) in the assay with Enterococcus faecium [18] and 32 µg/mL (≈ 46.8 µM) in the assay on Pseudomonas aeruginosa [19].

For the molecule `CCCCCCCCCCCCCCCC(=O)N[C@H]1CCN[C@H]([C@@H](O[C@@H]2O[C@H](CN)[C@@H](O)[C@H]2O)[C@H]2O[C@@H](n3ccc(=O)[nH]c3=O)[C@H](O)[C@@H]2O)C1`, the MIC was found to be 16 µg/mL (≈ 22.5 µM) with Enterococcus faecalis [5]; 16 µg/mL (≈ 22.5 µM) with Enterococcus faecalis [6]; 16 µg/mL (≈ 22.5 µM) in the assay on Staphylococcus aureus [7]; 8 µg/mL (≈ 11.2 µM) in the assay on Staphylococcus aureus [8]; 32 µg/mL (≈ 45 µM) in the assay with Enterococcus faecium [9]; 8 µg/mL (≈ 11.2 µM) with Enterococcus faecium [10]. Moreover, the MIC against Escherichia coli [20] was 32 µg/mL (≈ 45 µM); against Enterococcus faecium [12] it was 32 µg/mL (≈ 45 µM); in the assay on Haemophilus influenzae [13] it was above 64 µg/mL; with Enterococcus faecalis [14] it was 16 µg/mL (≈ 22.5 µM); against Enterococcus faecalis [15], 16 µg/mL (≈ 22.5 µM); with Staphylococcus aureus [16], 8 µg/mL (≈ 11.2 µM). Besides, the MIC is 16 µg/mL (≈ 22.5 µM) in the assay with Staphylococcus aureus [17]; 8 µg/mL (≈ 11.2 µM) in the assay on Enterococcus faecium [18]; 64 µg/mL (≈ 89.9 µM) against Streptococcus pneumoniae; 32 µg/mL (≈ 45 µM) against Escherichia coli [22]; above 64 µg/mL with Acinetobacter baumannii; above 64 µg/mL with Pseudomonas aeruginosa [23]. In the assay with Pseudomonas aeruginosa [19], the MIC is above 64 µg/mL. In addition, the half-inhibitory concentration (IC50) in assay [21] was above 2.7 mM.

As to `CCCCCCCCCCCCCCCC(=O)OC[C@H]1[C@@H](C(=O)N(C)C)[C@H]([C@H]2O[C@@H](n3ccc(=O)[nH]c3=O)[C@H](O)[C@@H]2O)ON1CCCN`, the MIC with Haemophilus influenzae [4] and against Haemophilus influenzae [13] was 1 µg/mL (≈ 1.47 µM) in each case.

For the molecule `CO[C@@H]1[C@@H](OC)[C@H](C)O[C@@H](OC(=O)C[C@@H](C)CC(=O)O[C@@H](CCCCCCCCC(C)C)CC(=O)O[C@H]2CN(C)[C@@H]([C@H](O[C@@H]3O[C@H](CN)[C@@H](O)[C@H]3O)[C@H]3O[C@@H](n4ccc(=O)[nH]c4=O)[C@H](O)[C@@H]3O)C(=O)N(C)[C@@H]2C(=O)O)[C@@H]1OC`, the MIC was 0.78 to 1.56 µg/mL (≈ 0.698 to 1.4 µM) in assay [1], 1.56 µg/mL (≈ 1.4 µM) in assay [2], 0.1 µg/mL (≈ 0.0894 µM) against Mycobacterium avium and 1.56 µg/mL (≈ 1.4 µM) in [3].

`CC(=O)N[C@@H]1CCN[C@H]([C@H](O[C@@H]2O[C@H](CN)[C@@H](O)[C@H]2O)[C@H]2O[C@@H](n3ccc(=O)[nH]c3=O)[C@H](O)[C@@H]2O)C1`: the MIC with Enterococcus faecium [12], against Haemophilus influenzae [13], with Enterococcus faecalis [14], against Enterococcus faecalis [15], with Staphylococcus aureus [16] and in the assay on Staphylococcus aureus [17] was above 64 µg/mL in each case. Besides, the MIC against Enterococcus faecium [18], in the assay on Streptococcus pneumoniae, against Escherichia coli [22], in the assay with Acinetobacter baumannii, with Pseudomonas aeruginosa [23] and in the assay with Pseudomonas aeruginosa [19] was above 64 µg/mL each time. In addition, half-maximal inhibition in assay [21] (IC50) was put at 2.6 mM.

For the origin of these results see ChEMBL document CHEMBL4402510, “Caprazamycins: Promising lead structures acting on a novel antibacterial target MraY” (Eur J Med Chem, 2019).
